Values quoted from earlier work as cited in patent publication US9308182B2 (TEVA PHARMACEUTICAL INDUSTRIES, LTD., priority 2012, dated 2016).

Details: non specific MAO inhibitor; all the treatment groups; cited from earlier work

SMILES: O=C(CCNNC(=O)c1ccncc1)NCc1ccccc1 [nialamide]
- effect on blood pressure response to tyramine: severe increase in blood pressure
